From PubChem BioAssay AID1322 (NMMLSC, 2008)
Activity calls are given as the source filed them. The rule behind the calls is not given here.

target: Bcl-2-like protein 1 (Homo sapiens) (UniProt Q07817); assay: Bim-Bcl-XL interaction inhibitors, potency, dose response, biochemical, multiplexed, bead flow cytometry, human Bcl-XL (AID 1322); conditions: Bead-based flow cytometry, Bim peptide-Bcl-XL binding, MCF; for inhibition: test concentration not given here
Sequence (Q07817 whole entry, looked up): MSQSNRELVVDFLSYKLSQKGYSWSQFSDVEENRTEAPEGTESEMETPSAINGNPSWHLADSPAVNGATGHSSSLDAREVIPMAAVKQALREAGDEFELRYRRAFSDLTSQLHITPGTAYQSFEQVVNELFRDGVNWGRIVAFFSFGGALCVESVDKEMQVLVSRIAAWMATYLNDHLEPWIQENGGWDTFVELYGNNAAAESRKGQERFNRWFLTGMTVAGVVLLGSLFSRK

SMILES	outcome
Nc1ccc(-c2cn3cccnc3n2)cc1	inactive
CCOC(=O)c1cc2c(=O)n3ccccc3nc2n(Cc2ccco2)c1=NC(=O)c1ccccc1OC	inactive
FC(F)(F)c1ccc2c(c1)C1C=CCC1C(c1ccncc1)N2 (configuration not stated)	inactive
Fc1ccc(C2=Nc3cccc4cccc(c34)N2)cc1	inactive
COc1c(C)cc(Br)cc1C(=O)Nc1ccc(S(N)(=O)=O)cc1	inactive
CC(C(=O)Nc1cc([N+](=O)[O-])ccc1Cl)N1CCN(c2ccc(O)cc2)CC1 (configuration not stated)	inactive
CCN(CC)c1ccc(NC2=C(Cl)C(=O)c3ccccc3C2=O)cc1	inactive
Cc1cc[n+]2cc(-c3cccc([N+](=O)[O-])c3)c(-c3cccc([N+](=O)[O-])c3)cc2c1	inactive
O=C(Cc1ccccc1)N/N=C/c1cccn1-c1ccc([N+](=O)[O-])cc1	inactive
CCOc1ccccc1/C=N/NC(=O)CNC(=O)COc1ccccc1	inactive
CCSc1ncnc2sc(C)c(C)c12	inactive

same assay, conditions: Bead-based flow cytometry, Bim peptide-Bcl-XL binding, MCF

SMILES	inhibition
O=C(NCc1ccccn1)c1ccc2nc(-c3ccco3)c(-c3ccco3)nc2c1	inactive
CCOc1cc(S(=O)(=O)N2CCCCC2)ccc1F	inactive
CC1Cc2ccccc2N1C(=O)c1ccc(N2CCCC2)c([N+](=O)[O-])c1 (configuration not stated)	inactive
CCN1CCN(c2cc(C)c3cc(NC(=S)N4CCN(c5ccc(F)cc5)CC4)ccc3n2)CC1	inactive
Cc1ccc(C)n1-c1cccc(C(=O)O)c1	inactive
Cc1ccc(CC(=O)OCCNC(=O)c2cccnc2)cc1	inactive
CCN1CCN(c2cc(C)c3cc(NC(=S)N4CC(C)CC(C)C4)ccc3n2)CC1 (configuration not stated)	inactive
COc1ccc(S(=O)(=O)NCCSc2ccc(Cl)cc2)cc1OC	inactive
COc1ccc(N2C(=O)/C(=C/c3cccs3)NC2=S)cc1	inactive
CC1(C)CC(NC(=O)COc2ccc([N+](=O)[O-])cc2)CC(C)(C)N1	inactive
CCOc1ccccc1NC(=O)CSc1ccc2nnc(-c3cccnc3)n2n1	inactive
CN(C)c1ccc(C(=O)/C=C/c2ccc(Br)cc2)cc1	inactive
NC(=O)c1c(NC(=O)C2CCCO2)sc2c1CCCCC2 (configuration not stated)	inactive
Nc1ccc(Nc2nc(-c3ccncc3)cs2)cc1	inactive
Cc1[nH]n(C(N)=S)c(=O)c1N=Nc1ccc(S(=O)(=O)N2CCCCCC2)cc1	inactive
Cc1cc(C)nc(/N=C(\N)N2CCc3ccccc32)n1	inactive
CCN1CCN(c2cc(C)c3cc(NC(=S)N4CCN(c5ccccc5)CC4)ccc3n2)CC1	inactive
CCN(CC)c1ccc(NC(=O)c2cccc(C)c2)cc1S(=O)(=O)Nc1ccccc1OC	inactive
COC(=O)c1sc(NC(=O)c2ccc(Cn3cc(Cl)cn3)o2)c(C#N)c1C	inactive
COc1ccc2cc(CN(CCc3ccccc3)Cc3nnnn3CC3CCCO3)c(=O)[nH]c2c1 (configuration not stated)	inactive
COC(=O)/C(=C/c1ccc(F)cc1)NC(C)=O	inactive

SMILES	inhibition
O=c1c2c(n3nnnc3n1Cc1ccccc1)-c1ccccc1CC21CCCC1	inactive
Cc1cc(C)c(C)c(S(=O)(=O)N2CCN(CC(=O)NC(=O)NCc3ccccc3)CC2)c1C	inactive
COc1ccc(CC(=O)Nc2ccc(C(=O)Nc3nccs3)cc2)cc1OC	inactive
COc1ccc(-n2cc(-c3ccc(OC)c(OC)c3)[nH]c2=S)cc1	inactive
Cc1ccc(C)c(Oc2ncnc(N)c2[N+](=O)[O-])c1	inactive
O=C(COC(=O)CCCN=C1NS(=O)(=O)c2ccccc21)NC(=O)NC1CCCC1	inactive
O=C1C=C(Nc2ccccc2)C(=O)c2ccccc21	inactive
Cc1ccccc1-n1nc(SCC(=O)O)sc1=S	inactive
Cc1ccc(-c2ccc(CCC(=O)O)n2NC(=O)c2cccs2)cc1	inactive
Cc1cc(Cl)c(S(=O)(=O)NCC2CCCO2)cc1OCC(N)=O (configuration not stated)	inactive
CN1CCN(c2ccccc2N)CC1	inactive
Cc1nnc(Sc2cc(NCCCO)c([N+](=O)[O-])c3nonc23)s1	inactive
COc1ccc(CC(=O)Nc2ccc3nc(C)sc3c2)cc1OC	inactive
CC1(C)SC(=S)N(NC(=O)Nc2ccccc2)C1N(O)C(=O)Nc1cccc2ccccc12 (configuration not stated)	inactive
COc1cc(C2Nc3cccc4cccc(c34)N2)ccc1OC(C)=O	inactive
Cc1cc(NC(=O)CCCC(=O)NCc2ccccc2)no1	inactive
Oc1ccc(C=NCC2COc3ccccc3O2)cc1 (configuration not stated)	inactive
O=C(COc1ccc(Br)cc1CNC1CCCCC1)NCCc1ccccc1	inactive
Cc1nc(=S)c2ccccc2[nH]1	inactive
Cc1cc(C)c2c(N)c3cccc(C)c3nc2n1	inactive
N#Cc1cccc(N=c2ssnc2Cl)c1	inactive

SMILES	inhibition
CN1CCN(c2ccc(N)cc2)CC1	inactive
CCN(CC)c1ccc(NC(=O)c2ccccc2F)cc1S(=O)(=O)Nc1ccccc1OC	inactive
O=C(NCC1CCCO1)c1ccc2c(=O)n(-c3ccc(F)cc3)c(=S)[nH]c2c1 (configuration not stated)	inactive
COc1cccc(NC(=O)CSc2nncn2N)c1	inactive
COc1c(F)c(F)c(C(=O)Nc2ccccc2N2CCN(C(=O)C(C)C)CC2)c(F)c1F	inactive
COc1ccc(N=C2NC(=O)/C(=C\C=C\c3ccco3)S2)cc1	inactive
Cc1ccc(NS(=O)(=O)c2cc(NC(=O)c3ccc4c(c3)NC(=O)CS4)ccc2C)c(C)c1	inactive
CCCn1c(C)cc(-c2csc(N)n2)c1C	inactive
O=C1/C(=C/c2cccs2)Sc2ccccc21	inactive
Cc1ccc(NC2=C(NC(=O)c3ccccc3)C(=O)c3ccccc3C2=O)cc1Cl	inactive
CCN=c1scc(C)n1/N=C/c1ccc(O)c(O)c1O	inactive
CCc1cccc(NC(=O)COc2ccccc2)c1	inactive
c1ccc(-c2nc(N3CCOCC3)s[n+]2-c2ccccc2)cc1	inactive
COc1ccc(NC(=O)Cc2c(F)cccc2Cl)c(OC)c1	inactive
Cc1nc2scc(-c3ccccc3)c2c(=O)n1N=C1C=CC(=O)C=C1	inactive
COc1ccc(C2=Nc3cccc4cccc(c34)N2)cc1	inactive
CCCCCCc1cc2cc(C(=O)Nc3ccccc3)c(=O)oc2cc1O	inactive
CN1N=C(C(=O)N2CCCC(C(=O)c3cccc(C(F)(F)F)c3)C2)CCC1=O (configuration not stated)	inactive
COC(=O)c1c(C(=O)OC)c2cccc3cc(-c4ccccc4)c4ccc1c4n32	inactive
